Assays:
[1] = system: Pseudomonas aeruginosa UI-18: Wild-type (PA-7); assay: MIC determination (CLSI), strain PA-7; type: cell-based; details: strain PA-7, unit assumed
Procedure, shortened: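 Strain tested was P. aeruginosa UI-18, a wild-type isolate labelled PA-7. Minimum inhibitory concentrations followed CLSI dilution methodology for aerobically growing bacteria (M7-A7, M100-S18).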

[2] = system: Escherichia coli EC-1: VOGEL, mouse virulent; assay: MIC determination (CLSI), strain EC-1; type: cell-based; details: strain EC-1, unit assumed
Procedure, shortened: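 The mouse-virulent VOGEL isolate of E. coli, EC-1, served as test organism. Minimum inhibitory concentration was measured by CLSI dilution methodology (M7-A7; M100-S18 standards).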

[3] = generated in the same manner as in Table 4

Compound	PA-7 (MIC) [1]	EC-1 (MIC) [2]	PA-7 (MIC) [1, 3]	EC-1 (MIC) [2, 3]
CC(CCn1ccc(-c2ccc(OCCCn3cncn3)c(Cl)c2Cl)cc1=O)(C(=O)NO)S(C)(=O)=O (stereo not drawn) [Example 292, 4-[4-{2,3-dichloro-4-[3-(1H-1,2,4-triazol-1-yl)propoxy]phenyl}-2-oxopyridin-1(2H)-yl]-N-hydroxy-2-methyl-2-(methylsulfonyl)butanamide]	16 µg/mL	8 µg/mL	–	–
C[C@@](CCn1ccc(-c2ccc(Oc3cc(Cl)ccn3)cc2)cc1=O)(C(=O)NO)S(C)(=O)=O [Example 428, (2R)-4-[4-{4-[(4-chloropyridin-2-yl)oxy]phenyl}-2-oxopyridin-1(2H)-yl]-N-hydroxy-2-methyl-2-(methylsulfonyl)butanamide]	1 µg/mL	0.125 µg/mL	–	–
CC(CCn1ccc(-c2ccc(OCCCc3ccncc3)cc2)cc1=O)(C(=O)NO)S(C)(=O)=O (stereo not drawn) [Example 89]	–	–	2 µg/mL	0.25 µg/mL
CCCCCc1ccc(-c2ccn(CCC(C)(C(=O)NO)S(C)(=O)=O)c(=O)c2)cc1 (stereo not drawn) [Example 217, N-hydroxy-2-methyl-2-(methylsulfonyl)-4-[2-oxo-4-(4-pentylphenyl)pyridin-1(2H)-yl]butanamide]	8 µg/mL	< 0.06 µg/mL	–	–
C[C@@](CCn1ccc(-c2ccc(Oc3cccnc3C#N)cc2)cc1=O)(C(=O)NO)S(C)(=O)=O [Example 442, (2R)-4-[4-{4-[(2-cyanopyridin-3-yl)oxy]phenyl}-2-oxopyridin-1(2H)-yl]-N-hydroxy-2-methyl-2-(methylsulfonyl)butanamide]	4 µg/mL	4 µg/mL	–	–
C[C@@](CCn1ccc(-c2ccc(-c3ccccn3)cc2)cc1=O)(C(=O)NO)S(C)(=O)=O [Example 374, (2R)-N-hydroxy-2-methyl-2-(methylsulfonyl)-4-[2-oxo-4-(4-pyridin-2-ylphenyl)pyridin-1(2H)-yl]butanamide]	1 µg/mL	0.25 µg/mL	–	–
Cc1nc(C)n(-c2ccc(-c3ccn(CC[C@](C)(C(=O)NO)S(C)(=O)=O)c(=O)c3)cc2)n1 [Example 384, (2R)-4-{4-[4-(3,5-dimethyl-1H-1,2,4-triazol-1-yl)phenyl]-2-oxopyridin-1(2H)-yl}-N-hydroxy-2-methyl-2-(methylsulfonyl)butanamide]	16 µg/mL	8 µg/mL	–	–
CC(CCn1ccc(-c2cccc3cnccc23)cc1=O)(C(=O)NO)S(C)(=O)=O (stereo not drawn) [Example 215, N-hydroxy-4-(4-isoquinolin-5-yl-2-oxopyridin-1(2H)-yl)-2-methyl-2-(methylsulfonyl)butanamide]	64 µg/mL	> 64 µg/mL	–	–
C[C@@](CCn1ccc(-c2ccc(N3CCC(O)CC3)cc2)cc1=O)(C(=O)NO)S(C)(=O)=O [Example 329, (2R)-N-hydroxy-4-{4-[4-(4-hydroxypiperidin-1-yl)phenyl]-2-oxopyridin-1(2H)-yl}-2-methyl-2-(methylsulfonyl)butanamide]	4 µg/mL	1 µg/mL	–	–
CC(CCn1ccc(-c2ccc(OCCCCO)cc2)cc1=O)(C(=O)NO)S(C)(=O)=O (stereo not drawn) [Example 75, N-hydroxy-4-{4-[4-(4-hydroxybutoxy)phenyl]-2-oxopyridin-1(2H)-yl}-2-methyl-2-(methylsulfonyl)butanamide]	–	–	4 µg/mL	2 µg/mL
Cc1cc(-c2ccc(-c3ccn(CC[C@](C)(C(=O)NO)S(C)(=O)=O)c(=O)c3)cc2)[nH]n1 [Example 369]	4 µg/mL	2 µg/mL	–	–
CC(CCn1ccc(-c2c[nH]c3ccccc23)cc1=O)(C(=O)NO)S(C)(=O)=O (stereo not drawn) [Example 296, N-hydroxy-4-[4-(1H-indol-3-yl)-2-oxopyridin-1(2H)-yl]-2-methyl-2-(methylsulfonyl)butanamide]	64 µg/mL	64 µg/mL	–	–
Cc1c(-c2ccc(Cl)cc2)ccn(CC[C@](C)(C(=O)NO)S(C)(=O)=O)c1=O [Example 396, (2R)-4-[4-(4-chlorophenyl)-3-methyl-2-oxopyridin-1(2H)-yl]-N-hydroxy-2-methyl-2-(methylsulfonyl)butanamide]	0.5 µg/mL	0.25 µg/mL	–	–
CCOc1ccc(-c2ccn(CC[C@](C)(C(=O)NO)S(C)(=O)=O)c(=O)c2)c(F)c1 [Example 361, (2R)-4-[4-(4-ethoxy-2-fluorophenyl)-2-oxopyridin-1(2H)-yl]-N-hydroxy-2-methyl-2-(methylsulfonyl)butanamide]	2 µg/mL	0.5 µg/mL	–	–
CC(CCn1ccc(-c2ccc(OCc3ccncc3)cc2)cc1=O)(C(=O)NO)S(C)(=O)=O (stereo not drawn) [Example 268, N-hydroxy-2-methyl-2-(methylsulfonyl)-4-{2-oxo-4-[4-(pyridin-4-ylmethoxy)phenyl]pyridin-1(2H)-yl}butanamide]	2 µg/mL	1 µg/mL	–	–
Cc1cc(OCCCN2CCOCC2)ccc1-c1ccn(CCC(C)(C(=O)NO)S(C)(=O)=O)c(=O)c1 (stereo not drawn) [Example 228, N-hydroxy-2-methyl-4-{4-[2-methyl-4-(3-morpholin-4-ylpropoxy)phenyl]-2-oxopyridin-1(2H)-yl}-2-(methylsulfonyl)butanamide]	16 µg/mL	8 µg/mL	–	–
Cc1ccc(-c2ccn(CCC(C)(C(=O)NO)S(C)(=O)=O)c(=O)c2)cc1N (stereo not drawn) [Example 115, 4-[4-(3-amino-4-methylphenyl)-2-oxopyridin-1(2H)-yl]-N-hydroxy-2-methyl-2-(methylsulfonyl)butanamide]	–	–	16 µg/mL	64 µg/mL
Cc1cc(-n2nccn2)ccc1-c1ccn(CC[C@](C)(C(=O)NO)S(C)(=O)=O)c(=O)c1 [Example 358, (2R)-N-hydroxy-2-methyl-2-(methylsulfonyl)-4-{4-[2-methyl-4-(2H-1,2,3-triazol-2-yl)phenyl]-2-oxopyridin-1(2H)-yl}butanamide]	1 µg/mL	0.25 µg/mL	–	–
COc1cc(F)ccc1-c1ccn(CCC(C)(C(=O)NO)S(C)(=O)=O)c(=O)c1 (stereo not drawn) [Example 166, 4-[4-(4-fluoro-2-methoxyphenyl)-2-oxopyridin-1(2H)-yl]-N-hydroxy-2-methyl-2-(methylsulfonyl)butanamide]	–	–	8 µg/mL	16 µg/mL
CC(CCn1ccc(-c2ccc(OCCCO)cc2Cl)cc1=O)(C(=O)NO)S(C)(=O)=O (stereo not drawn) [Example 251, 4-{4-[2-chloro-4-(3-hydroxypropoxy)phenyl]-2-oxopyridin-1(2H)-yl}-N-hydroxy-2-methyl-2-(methylsulfonyl)butanamide]	4 µg/mL	2 µg/mL	–	–
COc1ccc(-c2ccn(CC[C@](C)(C(=O)NO)S(C)(=O)=O)c(=O)c2C)c(F)c1 [Example 393, (2R)-4-[4-(2-fluoro-4-methoxyphenyl)-3-methyl-2-oxopyridin-1(2H)-yl]-N-hydroxy-2-methyl-2-(methylsulfonyl)butanamide]	1 µg/mL	0.5 µg/mL	–	–
Cc1nccn1-c1ccc(-c2ccn(CC[C@](C)(C(=O)NO)S(C)(=O)=O)c(=O)c2)cc1 [Example 368, (2R)-N-hydroxy-2-methyl-4-{4-[4-(2-methyl-1H-imidazol-1-yl)phenyl]-2-oxopyridin-1(2H)-yl}-2-(methylsulfonyl)butanamide]	16 µg/mL	> 64 µg/mL	–	–
COc1ccc(-c2ccn(CC[C@](C)(C(=O)NO)S(C)(=O)=O)c(=O)c2)c(Cl)c1 [Example 342, (2R)-4-[4-(2-chloro-4-methoxyphenyl)-2-oxopyridin-1(2H)-yl]-N-hydroxy-2-methyl-2-(methylsulfonyl)butanamide]	0.5 µg/mL	0.5 µg/mL	–	–
CC(CCn1ccc(-c2ccc(O)c(F)c2)cc1=O)(C(=O)NO)S(C)(=O)=O (stereo not drawn) [Example 70, 4-[4-(3-fluoro-4-hydroxyphenyl)-2-oxopyridin-1(2H)-yl]-N-hydroxy-2-methyl-2-(methylsulfonyl)butanamide]	–	–	> 64 µg/mL	> 64 µg/mL
C[C@@](CCn1ccc(-c2ccc(-c3cscn3)cc2)cc1=O)(C(=O)NO)S(C)(=O)=O [Example 405, (2R)-N-hydroxy-2-methyl-2-(methylsulfonyl)-4-{2-oxo-4-[4-(1,3-thiazol-4-yl)phenyl]pyridin-1(2H)-yl}butanamide]	1 µg/mL	0.125 µg/mL	–	–
COc1cc(OCCCO)ccc1-c1ccn(CCC(C)(C(=O)NO)S(C)(=O)=O)c(=O)c1 (stereo not drawn) [Example 253, N-hydroxy-4-{4-[4-(3-hydroxypropoxy)-2-methoxyphenyl]-2-oxopyridin-1(2H)-yl}-2-methyl-2-(methylsulfonyl)butanamide]	> 64 µg/mL	16 µg/mL	–	–
Cc1ccc(S(=O)(=O)N(C)C)cc1-c1ccn(CCC(C)(C(=O)NO)S(C)(=O)=O)c(=O)c1 (stereo not drawn) [Example 160, 4-[4-{5-[(dimethylamino)sulfonyl]-2-methylphenyl}-2-oxopyridin-1(2H)-yl]-N-hydroxy-2-methyl-2-(methylsulfonyl)butanamide]	–	–	> 64 µg/mL	> 64 µg/mL
CC(CCn1ccc(-c2cc(F)ccc2O)cc1=O)(C(=O)NO)S(C)(=O)=O (stereo not drawn) [Example 117, 4-[4-(5-fluoro-2-hydroxyphenyl)-2-oxopyridin-1(2H)-yl]-N-hydroxy-2-methyl-2-(methylsulfonyl)butanamide]	–	–	> 64 µg/mL	> 64 µg/mL
CC(C)(C)NC(=O)c1cncc(-c2ccn(CCC(C)(C(=O)NO)S(C)(=O)=O)c(=O)c2)c1 (stereo not drawn) [Example 154, N-tert-butyl-1′-[4-(hydroxyamino)-3-methyl-3-(methylsulfonyl)-4-oxobutyl]-2′-oxo-1′,2′-dihydro-3,4′-bipyridine-5-carboxamide]	–	–	> 64 µg/mL	> 64 µg/mL
CC(CCn1ccc(-c2ccc(OCCCO)cc2F)cc1=O)(C(=O)NO)S(C)(=O)=O (stereo not drawn) [Example 250, 4-{4-[2-fluoro-4-(3-hydroxypropoxy)phenyl]-2-oxopyridin-1(2H)-yl}-N-hydroxy-2-methyl-2-(methylsulfonyl)butanamide]	4 µg/mL	2 µg/mL	–	–

From US8846933B2, “N-link hydroxamic acid derivatives useful as antibacterial agents” (Pfizer Inc., priority 2009, dated 2014)
